The structures appear in SMILES notation. Converted amounts (≈) assume the structure as drawn.

Assay [1] relates to β-lactamase. As to the kind of experiment: β-lactamase inhibitory activity (general statement). Format: biochemical. As to conditions: statement in words. An excerpt: (§1) Results of the tests on the antimicrobial activities and β-lactamase inhibitory activities are summarized as follows.
(§2) The β-lactamase inhibitory activity is expressed as a minimum concentration (μg/ml) of the test compound which is required to inhibit the hydrolysis of the substrate by β-lactamase. The supernatant, which has been obtained by means of breaking the washed cells of the β-lactamase-producing microorganisms in a buffer with ultrasonic waves and then centrifuging the consequent cell-free extract, is employed as a standard β-lactamase.
(§3) A test compound is successively diluted with a buffer (pH 7.0) by a two-fold dilution method, the standard β-lactamase in added to each of the diluted solutions, then the mixture is allowed to stand for 10 minutes, and an indicator is added therein. The minimum inhibitory concentration at which no color is developed after observation for 20 minutes, is determined.

The subject of assay [2] is Gram-positive and Gram-negative microorganisms. Kind of assay: Antimicrobial activity (general statement). In kind it is cell-based. The following applies: statement in words.
Description: as §1

In assay [3] the target is T1, β-lactamase (cephalosporinase type) of Enterobacter cloacae 92 (Enterobacter cloacae, UniProt P05364).
T1 construct: supernatant of sonicated, washed cells of the producing strain (crude cell-free extract)
T1 sequence (P05364 21-381): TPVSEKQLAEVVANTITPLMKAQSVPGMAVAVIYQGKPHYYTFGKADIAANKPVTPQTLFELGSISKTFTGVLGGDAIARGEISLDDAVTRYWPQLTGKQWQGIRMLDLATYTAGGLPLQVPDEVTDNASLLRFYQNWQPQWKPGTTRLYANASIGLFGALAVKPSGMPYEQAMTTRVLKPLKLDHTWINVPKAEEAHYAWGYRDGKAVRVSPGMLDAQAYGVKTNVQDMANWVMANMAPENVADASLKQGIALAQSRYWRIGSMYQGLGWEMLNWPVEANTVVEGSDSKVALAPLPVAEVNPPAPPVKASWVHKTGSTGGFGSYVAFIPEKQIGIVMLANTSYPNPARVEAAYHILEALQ
As to the kind of experiment: β-lactamase inhibitory activity, inhibition of hydrolysis of the substrate. The following applies: β-lactamase of Enterobacter cloacae 92, cephalosporinase type; pH 7.0, 10 min preincubation, read after 20 min. In kind it is biochemical.
Description: (§4) (2) Test on the β-lactamase inhibitory activity:
as §2, §3
*^1 Producing cephalosporinasetype lactamase

Assay [4] deals with β-lactamase (penicillinase type) of Klebsiella sp. 363. Described as above. As to conditions: β-lactamase of Klebsiella sp. 363, penicillinase type; pH 7.0, 10 min preincubation, read after 20 min. In kind it is biochemical.
Description: as §4, §2, §3
*^2 Producing penicillinasetype lactamase

For assay [5], the system named is Enterobacter cloacae 233. As to the kind of experiment: Antimicrobial activity, agar dilution method. In kind it is cell-based. As to conditions: inoculum 10^6 cells/ml, sensitivity disc agar, 37° C. overnight, read-out: Minimum Inhibitory Concentration. The method, then: (§5) (1) Antimicrobial Activity:
(§6) Test microorganism Concentration (μg/ml)
(§7) Determined by agar dilution method: Inoculum size 10^6 cells/ml,
(§8) Cultivation on a sensitivitydisc agar medium at 37° C. overnight.
Background: In agar dilution the substance is mixed into plates at graded concentrations.

Assay [6] relates to Staphylococcus aureus 209P JC-1. As to the kind of experiment: Antimicrobial activity, agar dilution method. Format: cell-based. The following applies: inoculum 10^6 cells/ml, sensitivity disc agar, 37° C. overnight, read-out: Minimum Inhibitory Concentration. The method, then:
as §5, §6, §7, §8

The test system of assay [7] is Klebsiella pneumoniae SRL-1. As to the kind of experiment: Antimicrobial activity, agar dilution method. The following applies: SRL1, inoculum 10^6 cells/ml, sensitivity disc agar, 37° C. overnight, read-out: Minimum Inhibitory Concentration. Format: cell-based. On the procedure: as §5, §6, §7, §8
In assay [8] the test system is Escherichia coli NIHJ JC-2. As to the kind of experiment: Antimicrobial activity, agar dilution method. In kind it is cell-based. The following applies: NIHJJC2, inoculum 10^6 cells/ml, sensitivity disc agar, 37° C. overnight, read-out: Minimum Inhibitory Concentration. On the procedure:
as §5, §6, §7, §8

The subject of assay [9] is Proteus mirabilis PR-4. Kind of assay: Antimicrobial activity, agar dilution method. Format: cell-based. The following applies: PR4, inoculum 10^6 cells/ml, sensitivity disc agar, 37° C. overnight, read-out: Minimum Inhibitory Concentration. The method, then:
as §5, §6, §7, §8

Assay [10] has as its system Pseudomonas aeruginosa ATCC 25619. As to the kind of experiment: Antimicrobial activity, agar dilution method. In kind it is cell-based. As to conditions: ATCC25619, inoculum 10^6 cells/ml, sensitivity disc agar, 37° C. overnight, read-out: Minimum Inhibitory Concentration. On the procedure: as §5, §6, §7, §8
Assay [11] concerns Klebsiella sp. 363(R). As to the kind of experiment: Antimicrobial activity, agar dilution method. In kind it is cell-based. As to conditions: inoculum 10^6 cells/ml, sensitivity disc agar, 37° C. overnight, read-out: Minimum Inhibitory Concentration. The method, then:
as §5, §6, §7, §8

Assay [12] relates to Streptococcus pneumoniae I. As to the kind of experiment: Antimicrobial activity, agar dilution method. Format: cell-based. As to conditions: inoculum 10^6 cells/ml, sensitivity disc agar, 37° C. overnight, read-out: Minimum Inhibitory Concentration. On the procedure:
as §5, §6, §7, §8

Take `CC(=O)NCC[S@@+]([O-])C1=C(C(=O)O)N2C(=O)[C@@H]([C@H](C)OS(=O)(=O)O)[C@H]2C1` [PA-41746-F]: in [1], the β-lactamase inhibitory activities entry is listed as “excellent β-lactamase inhibitory activities”. Further, in [2], the antimicrobial activities result was “antimicrobial activities against Gram-positive and Gram-negative microorganisms”. Moreover, the “Minimum Inhibitory Concentration (inhibition of substrate hydrolysis by β-lactamase)” value (“Minimum Inhibitory Concentration” for short) in assay [3] and in [4] was 0.002 µg/mL each time.
As for `C[C@H](OS(=O)(=O)O)[C@@H]1C(=O)N2C(C(=O)O)=C(S(=O)O)C[C@H]12` [PA-41746-A2], in [1], the β-lactamase inhibitory activities entry is recorded as “excellent β-lactamase inhibitory activities”. Moreover, in assay [2], the antimicrobial activities result is “antimicrobial activities against Gram-positive and Gram-negative microorganisms”. Besides, the MIC in assay [5] was 6.25 µg/mL (≈ 18.3 µM); in assay [6] it was 12.5 µg/mL (≈ 36.6 µM); in assay [7], 1.56 µg/mL (≈ 4.57 µM); in [8], 1.56 µg/mL (≈ 4.57 µM); in assay [9], 3.13 µg/mL (≈ 9.17 µM); in assay [10] it was greater than 100 µg/mL. Further, the MIC in [11] and in assay [12] was 1.56 µg/mL (≈ 4.57 µM) throughout. Further, the results for the “Minimum Inhibitory Concentration” value in [3] and in assay [4] were 0.008 µg/mL and 1.0 µg/mL, respectively.
Turning to `C[C@H](OS(=O)(=O)O)[C@@H]1C(=O)N2C(C(=O)O)=C([S@+]([O-])CCO)C[C@H]12` [PA-41746-E], the β-lactamase inhibitory activities entry in assay [1] is “excellent β-lactamase inhibitory activities”. In addition, the antimicrobial activities entry in [2] is “antimicrobial activities against Gram-positive and Gram-negative microorganisms”. The “Minimum Inhibitory Concentration” value in assay [3] was 0.016 µg/mL; in assay [4], 0.008 µg/mL.

(Values after US4647408A, “Carbapenem-type antibiotics” (Shionogi & Co., Ltd., priority 1983, dated 1987).)
